The source of these data is patent publication US8795734B2, “Hydrophobic nanotubes and nanoparticles as transporters for the delivery of drugs into cells” (The Board of Trustees of the Leland Stanford Junior …, priority 2005, dated 2014).

The subject of data set [1] is HL-60 cells. Put plainly: Cell proliferation CellTiter 96 MTS assay. To be noted: 2 h incubation, monitored up to 5 days versus untreated cells. The class given is cell-based, human. The procedure: After incubation with the SWNT-streptavidin conjugate (unlabeled), HL-60 cells were washed and resuspended in RPMI media. The cells were plated in a 6-well plate at a density of ˜8×10^3 cells/well. At 24 h interval, Celltiter96 reagent (Promega) was added to one of the wells and allowed to incubate for ˜2-3 h at 37° C. and 5% CO2. The CellTiter 96 assay uses the tetrazolium compound (3-(4,5-dimethylthiazol-2-yl)-5-(3-carboxymethoxyphenyl)-2-(4-sulfophenyl)-2H-tetrazolium, inner salt; MTS) and the electron-coupling reagent, phenazine methosulfate (PMS). […] The measurement of the absorbance of the formazan can be carried out at 490 nm. […]
We used the CellTiter 96 MTS assay (Promega) to examine the proliferation of HL60 cells following exposure to SWNT-protein conjugates. […] The absorbance of the formazan salt can be measured at 490 nm and correlates to the number of cells in the suspension. The absorbance from the cells incubated with the SWNT-protein conjugates was measured over a period of 5 days in parallel with control cells never exposed to any nanotubes. The absorbance detected by a UV-VIS spectrophotometer was very similar for cells with and without exposure to SWNTs over the 5-day monitoring period.
Cells were incubated with SWNT-SA conjugate (without fluorescent label) for 2 hrs. […] The absorbance is then taken at 490 nm.

The test system of data set [2] is CXCR4. Put plainly: Silencing by PL-PEG-s-s-siRNA conjugates of different nanoparticles. The class given is cell-based. From the text: Conjugates as prepared according to Examples 24-27 were made with nanoparticles other than SWNTs. It was shown that MWNTs, carbon black nanoparticles can all be used to make noncovalent PL-PEG-s-s-siRNA conjugates. […] Referring to FIG. 10A, the silencing effect for these conjugates is shown with reference to SWNT conjugates. The experiments were done with the following:
Referring now to FIG. 10B, CXCR4 silencing is shown for different nanoparticles. Polystyrene spheres (PS, 20 nm and 50 nm) were also used to make noncovalent PL-PEG-s-s-siRNA conjugates. […] The data in FIG. 10B below compares the RNAi effects of PS delivery vs. nanotube delivery.

For data set [3], the system named is NIH-3T3 cells. Briefly: Apoptosis assay by Annexin V-FITC staining. The class given is cell-based. From the text:
We use Annexin V labeled with fluorescein isothiocyanate (Molecular Probes) as an early stage apoptosis marker. One of the earliest indications of apoptosis is the translocation of the membrane phospholipid phosphatidylserine (PS) from the inner to the outer leaflet of the plasma membrane. Once exposed to the extracellular environment, binding sites on PS become available for Annexin V, a ˜35 kDa Ca^2+-dependent, phospholipid binding protein with a high affinity for PS (Pigault, C.; Follenius-Wund, A.; Schmutz, M.; Freyssinet, J.; Brisson, A. J. Mol. Biol. 1994, 236, 199) (also see Sigma Technical Bulletin number MB-390). In this study, NIH 3T3 cells were plated and incubated with SWNT-cytochrome c as described above. […] The cells were co-stained with propidium iodide and immediately analyzed by flow cell cytometry. Apoptosis data in FIG. 3 were for cells free of PI-staining recorded ˜4-5 h after exposure to chloroquine with or without (for control) cyt c-SWNT conjugates.
HeLa (human cervix carcinoma) and NIH-3T3 cell lines, shown previously to undergo cyt-c-induced apoptosis were investigated in this study for intracellular transporting of cyt-c with SWNTs and for apoptosis assay (Cai). Unlike the proteins used for other uptake experiments, cyt-c used for binding to SWNTs and transported inside cells for apoptosis assay were free of any fluorescence label. […]

In data set [4] the test system is endosomal compartments of cells. Put plainly: Endosome release of protein-SWNT conjugates by chloroquine (confocal). The class given is cell-based. From the text: A.; Murthy, N.; Press, O. W.; Tirrell, D. A.; Hoffman, A. S.; Stayton, P. S. Bioconj. Chem. 1999, 10, 401; Cho, Y. W.; Kim, J. D.; Park, K. J. Pharm. Pharmacol. 2003, 55, 721). These methods make use of the pH difference across the endosome membrane and the pH response of the polymers or amines. For SWNT transporters, similar complexation schemes can be developed to afford nanotube transporters containing an endosome-releasing agent. While such an effort warrants detailed investigations separately from the current work, we describe here the release of internalized protein-SWNT conjugates from the endosomal compartments by adding chloroquine to cell medium during incubation of cells in protein-SWNT conjugates. […] The resulting osmotic pressure can lead to swelling of the endosomal compartments and eventual rupture (Ogris, M.; Steinlein, P.; Kursa, M.; Mechtler, K.; Kircheis, R.; Wagner, E. Gene Ther. 1998, 5, 1425).
In experiments carried out with and without chloroquine, we noticed a difference in the distribution of the detected fluorescence inside the cells. […] FIG. 2 (a) Cells are incubated with (a) SWNT-CytC conjugate and (b) SWNT-CytC+100 μM of chloroquine at 37° C. and 5% CO2 Confocal images are taken immediately after incubation and washing. […]

For data set [5], the system named is HL60 and HeLa cells. Put plainly: Internalization of SWNT-protein, SWNT-DNA and SWNT-SS-DNA conjugates (fluorescence confocal, flow cytometry). The class given is cell-based, human.
Procedure: Two cell lines, human promyelomonocytic HL60 cells and cervical cancer HeLa cells were used in the current work. HL60 were cultured in RPMI medium supplemented with 10% fetal bovine serum (FBS), while HeLa cells were cultured in DMEM medium supplemented with 10% FBS and 1% penicillin-streptomycin. The cells were suspended in phosphate buffered saline (PBS), mixed with a SWNT conjugate and incubated for 1-3 h at 37° C., except for the low temperature incubations. The concentration of SWNTs in the incubation solution was typically ˜2.5 mg/L as measured by UV-vis-NIR absorption spectrum, and the cell density was ˜2×10^5 cells/well. Adherent HeLa cells were either trypsinized to detach from the Petri dishes to form a suspension or were seeded overnight in chambered cover-slides.
Both the protein and DNA molecules were labeled with a fluorescent tag (by either Cy3 or Alexa Fluor 488) to allow for confocal fluorescence imaging and flow cytometry analysis.
We carried out incubations of protein-SWNT and DNA-SWNT with HL60 and HeLa cells at 4° C. and with cells pretreated with NaN3.
For data set [6], the system named is HL60 cells. Briefly: Cellular uptake of SWNT conjugates by confocal microscopy and flow cytometry. The class given is cell-based, human. To be noted: protein alone, versus untreated cells. The procedure: HL60 and Jurkat cells were both grown in RPMI-1640 cell culture medium (Invitrogen) supplemented with 10% fetal bovine serum (FBS). Prior to incubation, the cells were collected by centrifugation and resuspended in RPMI medium at a cell density of 3μ 10^6 cells/mL. Incubation of cells in a nanotube solution was done by mixing 100 μL of the cell suspension with 100 μL of a SWNT solution (2, 3 or 4) at 37° C. unless otherwise stated. The concentration of SWNT in the incubation solution was ˜0.05 mg/mL unless otherwise stated, and the incubation duration was always 1 h in 5% CO2 atmosphere except for time dependent incubation experiments. After incubation, the cells were washed and collected by centrifugation twice, and resuspended in RPMI medium.
FM4-64 (Molecular Probes Inc.) is a classical marker used for staining membrane and endosomes. The cell incubations were carried out under similar conditions as discussed in the previous section, except that FM 4-64 (2% v/v) was added to the incubation mixture. […]
Also, cells were analyzed by a Becton-Dickinson FACScan instrument after incubation in various nanotube solutions. […] We carried out dual detection of red and green fluorescence with the cells. The data presented here represent the mean green fluorescence obtained with a population of 10,000 live cells.

The subject of data set [7] is HL-60 cells. Briefly: Cell viability study with PEG-phospholipid functionalized SWNTs (propidium iodide). The class given is cell-based. The procedure: HL-60 cells were incubated and then washed to remove excess nanotubes, as described above. The cells were then placed into the incubator for an additional 24 h with the RPMI medium. The cells were then examined through a confocal microscope, after being stained with 2% (v/v) of propidium iodide (Biochemika), a common stain for dead cells. Control experiments were carried out for cells without exposure to nanotubes.
The confocal images (not shown) of HL-60 cells were obtained (a) untreated (b) treated with FTIC-PEG-PE modified CNTs for 90 min at 37° C. Cells were washed and allowed to incubate for an additional 24 h prior to confocal analysis. Propidium iodide is added to the suspension in order to stain for dead cells (red cells in the images).

With “SWNT-SA conjugate: Streptavidin without fluorescent label non-specifically bound to oxidized SWNTs”, in data set [1], the “cell proliferation (absorbance at 490 nm)” value is given as “does not show any deviation from the proliferation of untreated cells”.
In the case of Carbon black, the “cell entry and siRNA delivery” value in data set [2] is “able to enter cells and deliver siRNA into cells”. In addition, in data set [2] (~20 nM nanoparticle), the “silencing effect compared to SWNT conjugates (FIG. 10A)” value is reported as “greater silencing efficiency at day 3”.
Take “cyt-c-SWNT: Cytochrome c (12 kD) non-covalently bound to oxidized SWNTs”: the “percentage of apoptosed cells versus cyt-c alone” value in data set [3] (Annexin V-FITC staining) was “significantly higher percentages of apoptosed cells”. Moreover, in data set [3] (in the presence of chloroquine), the “degree of apoptosis with versus without chloroquine” value is “Higher degrees of apoptosis”. The “distribution of fluorescence inside the cells” value in data set [4] (100 μM chloroquine) was “diffuse and uniform”; in data set [4] (absence of chloroquine), “discrete punctate fluorescence spots”.
On to “SWNT-protein: Fluorescently labeled BSA non-specifically bound to oxidized Hipco SWNTs”, for which the cellular internalization entry in data set [5] (1-3 h at 37 °C) was “cellular internalization”. The “level of fluorescence in the cells” value in data set [5] (4 °C incubation and NaN3 pretreatment (ATP depletion)) is given as “considerably lower”.
In the case of “SA: Fluoresceinated streptavidin protein alone, MW ~60 kD”, in data set [6], the “fluorescence of cells by flow cytometry” value was “only slightly greater than the background fluorescence of untreated cells”.
For the substance Tween-20, the “effect of surfactant exposure on cells” value in data set [7] was “Cells tended to die”.
